Test results published in patent US11541056B2, “3-hydroxy-N-(3-(7H-pyrrolo[2,3-d]pyrimidin-4-yl)phenyl)pyrrolidine-1-carboxamide derivatives” (NOVARTIS AG, priority 2018, dated 2023).
Read-outs that look alike come from different tables or passages of the source.

Legend:
OCI-LY3 cells = assay: Resazurin cell viability assay in DLBCL cells (OCI-LY3); format: cell-based; details: Homo sapiens, OCI-Ly3, 72 h, OCI-LY3 cells (BTK independent), 50% growth inhibition, read-out: OCI-LY3 Prol GI50
Experimental: (§1) Compounds of the invention were tested in the following cellular assays. The terms in Table 1 are defined as follows: DC50 refers to the concentration at which 50% maximal degradation was observed; deg Amax is the extent of degradation and the value refers to the % protein remaining at the concentration at which maximum degradation is seen; Prol GI50 refers to the proliferation data and defines the concentration at which 50% growth inhibition was observed compared to the vehicle treated control at the end of the incubation time. TMD8 cells are BTK dependent and OCI-LY3 cells are BTK independent.
(§2) Cell Viability Assay in DLBCL (Diffuse Large B-Cell Lymphoma) Cells:
(§3) The effect of the BTK compounds on cell proliferation was measured by a Resazurin (Sigma, #R7017) based cell viability assay. TMD8 (BTK compound sensitive) and OCI-LY3 (BTK compound insensitive) cells were incubated for 72 h at 37° C. and 5% CO2 with the corresponding compound. Resazurin is a non-toxic, cell-permeable substrate that is virtually non-fluorescent. Upon entering living cells, Resazurin (Sigma, #R7017) is reduced to highly fluorescent Resorufin. The metabolic activity was assessed by measuring the fluorescence signal (ex. 530 nm; em. 600 nm).
(§4) TMD8 and OCI-Ly3 cells were seeded at day 0 in triplicates at a cell density of 1×10^4 cells per 150 μl/well in a 96-well plate (Costar #3904). Additional plates were prepared, in order to assess the basal metabolic activity of both cell lines at the beginning of the experiment. For these reference plates, Resazurin (Sigma, #R7017) was added to a final concentration of 13 μg/ml 3 h post seeding and was incubated for 2 h at 37° C. and 5% CO2. Following incubation, the fluorescent signal intensity of the 96-well plates was measured on a Mithras LB940 multimode plate reader at 530/600 nm (Berthold Technologies, Germany).
(§5) In parallel, 3 h post-seeding, test-plates were treated with compound at various concentrations, or with vehicle (DMSO) alone for 3 days. The compound addition to the plates was performed by using a HP D300 digital dispenser (TECAN, Switzerland). The compounds were tested in triplicate, 8-point serial dilution (1:4), with a start concentration of 10 μM for OCI-LY3 and 1 μM for the TMD8 cells, respectively. To assess the relative proliferation of the cells, Resazurin was added to each well directly to the medium to a final concentration of 13 μg/ml. The plates were incubated for 2 h at 37° C. and 5% CO2 to result in a 72 h endpoint. Following incubation, the fluorescent signal intensity of the 96-well plates were measured on a Mithras LB940 multimode plate reader at 530/600 nm (Berthold Technologies, Germany). The formation of Resorufin dye directly correlates with the number of metabolically active cells. For each triplicate treatment the mean and standard deviation were calculated and analyzed via curve fitting software to determine the respective compound concentration resulting in 50% growth inhibition (GI50) values. For each compound GI50 values were typically determined from at least 2 entirely independent experiments.
OCI-LY3 cells were acquired through a license agreement with University Health Network, Toronto, Canada. Cells are cultivated in RPMI1640 media (Gibco, #61870-010, lot. 1894759), supplemented with 10% FCS (HyClone, GE #SH30066.03, lot AB217603), 2 mM L-Glutamine (BioConcept, #5-10K50-H, lot. LA03467P), 1 mM Sodium Pyruvate (BioConcept, #5-60F00-H, lot. LB10510P), 10 mM HEPES (Gibco, #15630-056, lot. 1854074), 1% Pen/Strep (BioConcept, #4-01F00-H, lot. LB04235P).

TMD8 cells = assay: Resazurin cell viability assay in DLBCL cells (TMD8); format: cell-based; details: TMD8 cells (BTK dependent), 50% growth inhibition, read-out: TMD8 Prol GI50
Experimental: as §1, §2, §3, §4, §5
TMD8 cells were acquired through a license agreement with Tokyo Medical and Dental University, Japan. Cells are cultivated in MEM Alpha (BioConcept, #1-23F01-I, lot. LB04262P) supplemented with 10% FCS (HyClone, GE #SH30066.03, lot AB217603), 2 mM L-Glutamine (BioConcept, #5-10K50-H, lot. LA03467P), 1% Pen/Strep (BioConcept, #4-01F00-H, lot. LB04235P).

Row | SMILES | GI50 (OCI-LY3 cells) [nM] | GI50 (TMD8 cells; 72 h) [nM] | GI50 (TMD8 cells; Homo sapiens, TMD8, 72 h) [nM]
1 | COc1ccc(C(=O)N2CCC3(CCN(Cc4ccc(-c5cc6c(-c7cc(F)cc(NC(=O)N8C[C@@H](CC(C)C)[C@H](O)C8)c7C)ncnc6[nH]5)cc4)CC3)CC2)cc1N1CCC(=O)NC1=O (racemic) [Compound 5, trans-rac-N-(3-(6-(4-((9-(3-(2,4-Dioxotetrahydropyrimidin-1(2H)-yl)-4-methoxybenzoyl)-3,9-diazaspiro[5.5]undecan-3-yl)methyl)phenyl)-7H-pyrrolo[2,3-d]pyrimidin-4-yl)-5-fluoro-2-methylphenyl)-3-hydroxy-4-isobutylpyrrolidine-1-carboxamide] | 7460 | 0.73 | –
2 | COc1ccc(C(=O)N2CCC3(CCN(Cc4ccc(-c5cc6c(-c7cc(F)cc(NC(=O)N8C[C@@H](CC(C)C)[C@H](O)C8)c7C)ncnc6[nH]5)cc4)CC3)CC2)cc1N1CCC(=O)NC1=O [Compound 1, (3S,4R)—N-(3-(6-(4-((9-(3-(2,4-Dioxotetrahydropyrimidin-1(2H)-yl)-4-methoxybenzoyl)-3,9-diazaspiro[5.5]undecan-3-yl)methyl)phenyl)-7H-pyrrolo[2,3-d]pyrimidin-4-yl)-5-fluoro-2-methylphenyl)-3-hydroxy-4-isobutylpyrrolidine-1-carboxamide] | 7120 | – | 14
3 | COc1ccc(C(=O)N2CCC(OCCN3CCN(Cc4ccc(-c5cc6c(-c7cc(F)cc(NC(=O)N8C[C@H](CC(C)C)[C@@H](O)C8)c7C)ncnc6[nH]5)cc4)CC3)CC2)cc1N1CCC(=O)NC1=O [Compound 2, (3R,4S)—N-(3-(6-(4-((4-(2-((1-(3-(2,4-Dioxotetrahydropyrimidin-1 (2H)-yl)-4-methoxybenzoyl)piperidin-4-yl)oxy)ethyl)piperazin-1-yl)methyl)phenyl)-7H-pyrrolo[2,3-d]pyrimidin-4-yl)-5-fluoro-2-methylphenyl)-3-hydroxy-4-isobutylpyrrolidine-1-carboxamide] | 7730 | – | 0.31
4 | COc1ccc(C(=O)N2CCC3(CCN(Cc4ccc(-c5cc6c(-c7cc(F)cc(NC(=O)N8C[C@H](CC(C)C)[C@@H](O)C8)c7C)ncnc6[nH]5)cc4)CC3)CC2)cc1N1CCC(=O)NC1=O [Compound 6, (3R,4S)—N-(3-(6-(4-((9-(3-(2,4-Dioxotetrahydropyrimidin-1(2H)-yl)-4-methoxybenzoyl)-3,9-diazaspiro[5.5]undecan-3-yl)methyl)phenyl)-7H-pyrrolo[2,3-d]pyrimidin-4-yl)-5-fluoro-2-methylphenyl)-3-hydroxy-4-isobutylpyrrolidine-1-carboxamide] | 9920 | – | 0.45
5 | COc1ccc(C(=O)N2CCC(OC3CCN(Cc4ccc(-c5cc6c(-c7cc(F)cc(NC(=O)N8C[C@H](CC(C)C)[C@@H](O)C8)c7C)ncnc6[nH]5)cc4)CC3)CC2)cc1N1CCC(=O)NC1=O [Compound 8, (3R,4S)—N-(3-(6-(4-((4-((1-(3-(2,4-Dioxotetrahydropyrimidin-1(2H)-yl)-4-methoxybenzoyl)piperidin-4-yl)oxy)piperidin-1-yl)methyl)phenyl)-7H-pyrrolo[2,3-d]pyrimidin-4-yl)-5-fluoro-2-methylphenyl)-3-hydroxy-4-isobutylpyrrolidine-1-carboxamide] | > 10000 | – | 0.4
6 | COc1ccc(C(=O)N2CCC(CN3CCC(Oc4ccc(-c5cc6c(-c7cc(F)cc(NC(=O)N8C[C@H](CC(C)C)[C@@H](O)C8)c7C)ncnc6[nH]5)cc4)CC3)CC2)cc1N1CCC(=O)NC1=O [Compound 11, (3R,4S)—N-(3-(6-(4-((1-((1-(3-(2,4-Dioxotetrahydropyrimidin-1 (2H)-yl)-4-methoxybenzoyl)piperidin-4-yl)methyl)piperidin-4-yl)oxy)phenyl)-7H-pyrrolo[2,3-d]pyrimidin-4-yl)-5-fluoro-2-methylphenyl)-3-hydroxy-4-isobutylpyrrolidine-1-carboxamide] | 3510 | – | 0.18
7 | COc1ccc(C(=O)N2CCC(CN3CCN(Cc4ccc(-c5cc6c(-c7cc(F)cc(NC(=O)N8C[C@H](CC(C)C)[C@@H](O)C8)c7C)ncnc6[nH]5)cc4)CC3)CC2)cc1N1CCC(=O)NC1=O [Compound 12, (3R,4S)—N-(3-(6-(4-((4-((1-(3-(2,4-Dioxotetrahydropyrimidin-1(2H)-yl)-4-methoxybenzoyl)piperidin-4-yl)methyl)piperazin-1-yl)methyl)phenyl)-7H-pyrrolo[2,3-d]pyrimidin-4-yl)-5-fluoro-2-methylphenyl)-3-hydroxy-4-isobutylpyrrolidine-1-carboxamide] | > 10000 | – | 0.3
8 | COc1ccc(C(=O)N2CCC(OC3CCN(CCc4ccc(-c5cc6c(-c7cc(F)cc(NC(=O)N8C[C@H](CC(C)C)[C@@H](O)C8)c7C)ncnc6[nH]5)cc4)CC3)CC2)cc1N1CCC(=O)NC1=O [Compound 13, (3R,4S)—N-(3-(6-(4-(2-(4-((1-(3-(2,4-Dioxotetrahydropyrimidin-1(2H)-yl)-4-methoxybenzoyl)piperidin-4-yl)oxy)piperidin-1-yl)ethyl)phenyl)-7H-pyrrolo[2,3-d]pyrimidin-4-yl)-5-fluoro-2-methylphenyl)-3-hydroxy-4-isobutylpyrrolidine-1-carboxamide] | 9220 | – | 0.24
9 | COc1ccc(C(=O)N2CCC3(CCN(CCc4ccc(-c5cc6c(-c7cc(F)cc(NC(=O)N8C[C@H](CC(C)C)[C@@H](O)C8)c7C)ncnc6[nH]5)cc4)CC3)CC2)cc1N1CCC(=O)NC1=O [Compound 15, (3R,4S)—N-(3-(6-(4-(2-(9-(3-(2,4-Dioxotetrahydropyrimidin-1(2H)-yl)-4-methoxybenzoyl)-3,9-diazaspiro[5.5]undecan-3-yl)ethyl)phenyl)-7H-pyrrolo[2,3-d]pyrimidin-4-yl)-5-fluoro-2-methylphenyl)-3-hydroxy-4-isobutylpyrrolidine-1-carboxamide] | 7250 | – | 0.22
10 | COc1ccc(C(=O)N2CCC3(CCN(CCc4ccc(-c5cc6c(-c7cc(F)cc(NC(=O)N8C[C@@H](CC(C)C)[C@H](O)C8)c7C)ncnc6[nH]5)cc4)CC3)CC2)cc1N1CCC(=O)NC1=O [Compound 19, (3S,4R)—N-(3-(6-(4-(2-(9-(3-(2,4-dioxotetrahydropyrimidin-1(2H)-yl)-4-methoxybenzoyl)-3,9-diazaspiro[5.5]undecan-3-yl)ethyl)phenyl)-7H-pyrrolo[2,3-d]pyrimidin-4-yl)-5-fluoro-2-methylphenyl)-3-hydroxy-4-isobutylpyrrolidine-1-carboxamide] | > 10000 | – | 4.87
11 | COc1ccc(C(=O)N2CCC(CCN3CCC(OCc4ccc(-c5cc6c(-c7cc(F)cc(NC(=O)N8C[C@H](CC(C)C)[C@@H](O)C8)c7C)ncnc6[nH]5)cc4)CC3)CC2)cc1N1CCC(=O)NC1=O [Compound 22, (3R,4S)—N-(3-(6-(4-(((1-(2-(1-(3-(2,4-Dioxotetrahydropyrimidin-1 (2H)-yl)-4-methoxybenzoyl)piperidin-4-yl)ethyl)piperidin-4-yl)oxy)methyl)phenyl)-7H-pyrrolo[2,3-d]pyrimidin-4-yl)-5-fluoro-2-methylphenyl)-3-hydroxy-4-isobutylpyrrolidine-1-carboxamide] | 6680 | – | 0.23
